Patent US20110065916A1, “METHOD OF MAKING IMIDAZOAZEPINONE COMPOUNDS” (priority 2007, published 2011)

Test system: human T-bet
Assay: HEKT-bet-luc assay (normalized HEKT-bet IC50)
Type: cell-based
Conditions: compound 24 hours, normalized to reference ER-819544
Experimental: HEKT-bet-luc assay: This assay measures a T-bet dependent reporter (luciferase) activity in engineered HEK cells that express a human T-bet and a T-box responsive element driving luciferase reporter. HEKT-bet cells were plated at 2×10^4/well in 96-well plate and compound was added into cell culture for 24 hours. Luciferase activity was measured by adding 50 μl of Steady-Glo reagent (Promega) and samples were read in Victor V reader (PerkinElmer). The activity of compound was determined by comparing compound treated samples to non-compound treated vehicle controls. The IC50 values were calculated utilizing a maximum value corresponding to the amount of luciferase in the absence of a test compound and a minimum value corresponding to a test compound value obtained at maximum inhibition.
Determination of Normalized HEKT-bet IC50 values: Compounds were assayed in microtiter plates. Each plate included a reference compound which was ER-819544. The un-normalized IC50 value for a particular compound was divided by the IC50 value determined for the reference compound in the same microtiter plate to provide a relative potency value. The relative potency value was then multiplied by the established potency of the reference compound to provide the normalized HEKT-bet IC50 value. […] The IC50 values provided herein were obtained using this normalization method.

[1] = Homo sapiens, HEK293, 24 h, Table 4, engineered HEK cells

Row | Structure (SMILES) | IC50 [1] [nM] | further results
1 | CCN1C(=O)N2Cc3cc(OC)cc(OC)c3[C@@H](C)C=C2C12CCN(Cc1ccc(F)c(OC(F)(F)F)c1)CC2 [ER-819933] | 1150 | 
2 | CCN1C(=O)N2Cc3cc(OC)cc(OC)c3[C@@H](C)C=C2C12CCN(Cc1cccnc1OC)CC2 [ER-819833-01] | 47 | 
3 | CCN1C(=O)N2Cc3cc(OC)cc(OC)c3[C@@H](C)C=C2C12CCN(Cc1nccn1C)CC2 [ER-819957-01] |  | IC50 (Table 4, engineered HEK cells): 55 nM
4 | CCN1C(=O)N2Cc3cc(OC)cc(OC)c3[C@@H](C)C=C2C12CCN(Cc1ccn(C)c1)CC2 [ER-819961-01] | 96 | 
5 | CCN1C(=O)N2Cc3cc(OC)cc(OC)c3[C@@H](C)C=C2C12CCN(Cc1cn3ccsc3n1)CC2 [ER-811309-01] | 130 | 
6 | CCN1C(=O)N2Cc3cc(OC)cc(OC)c3[C@@H](C)C=C2C12CCN(Cc1cccc3c1OCC3)CC2 [ER-811306-01] | 100 | 
7 | CCN1C(=O)N2Cc3cc(OC)cc(OC)c3[C@@H](C)C=C2C12CCN(Cc1csnn1)CC2 [ER-811279-01] | 210 | 
8 | CCN1C(=O)N2Cc3cc(OC)cc(OC)c3[C@@H](C)C=C2C12CCN(Cc1cnn(C)c1C)CC2 [ER-819976-01] | 23 | 
9 | CCN1C(=O)N2Cc3cc(OC)cc(OC)c3[C@@H](C)C=C2C12CCN(Cc1cccn1CCC#N)CC2 [ER-820008-00] | 240 | 
10 | CCN1C(=O)N2Cc3cc(OC)cc(OC)c3[C@@H](C)C=C2C12CCN(Cc1c3ccccc3nn1C)CC2 [ER-811312-01] | 77 | 
11 | CCN1C(=O)N2Cc3cc(OC)cc(OC)c3[C@@H](C)C=C2C12CCN(Cc1cccc3[nH]ccc13)CC2 [ER-811300-01] | 35 | 
12 | CCN1C(=O)N2Cc3cc(OC)cc(OC)c3[C@@H](C)C=C2C12CCN(Cc1ccnn1C)CC2 [ER-819958-01] | 79 | 
13 | CCN1C(=O)N2Cc3cc(OC)cc(OC)c3[C@@H](C)C=C2C12CCN(Cc1cn(C)nc1C)CC2 [ER-819971-01] | 34 | 
14 | CCN1C(=O)N2Cc3cc(OC)cc(OC)c3[C@@H](C)C=C2C12CCN(Cc1ccc3ccccc3n1)CC2 [ER-811323-01] | 42 | 
15 | CCN1C(=O)N2Cc3cc(OC)cc(OC)c3[C@@H](C)C=C2C12CCN(Cc1cccc3nsnc13)CC2 [ER-811332-01] | 67 | 
16 | CCN1C(=O)N2Cc3cc(OC)cc(OC)c3[C@@H](C)C=C2C12CCN(Cc1cccn1-c1cc(C)on1)CC2 [ER-820017-01] | 69 | 
17 | CCN1C(=O)N2Cc3cc(OC)cc(OC)c3[C@H](C)C=C2C12CCN(Cc1ccc(F)c(OC(F)(F)F)c1)CC2 [ER-819945] | > 10000 | 
18 | CCN1C(=O)N2Cc3cc(OC)cc(OC)c3[C@@H](C)C=C2C12CCN(Cc1nccn1C)CC2 [ER-811278-01] | 37 | 
19 | CCN1C(=O)N2Cc3cc(OC)cc(OC)c3[C@@H](C)C=C2C12CCN(Cc1cccc3c1ccn3C)CC2 [ER-811349-01] | 43 | 
20 | CCN1C(=O)N2Cc3cc(OC)cc(OC)c3[C@@H](C)C=C2C12CCN(Cc1nc3ccccc3[nH]1)CC2 [ER-819965-01] | 130 | 
21 | CCN1C(=O)N2Cc3cc(OC)cc(OC)c3[C@@H](C)C=C2C12CCN(Cc1c(F)ccc(C)c1F)CC2 [ER-819934] | 100 | 

Row | Structure (SMILES) | IC50 [1] [nM] | further results
22 | CCN1C(=O)N2Cc3cc(OC)cc(OC)c3[C@@H](C)C=C2C12CCN(Cc1ccc3nccn3c1)CC2 [ER-811284-01] | 88 | 
23 | CCN1C(=O)N2Cc3cc(OC)cc(OC)c3[C@@H](C)C=C2C12CCN(Cc1cnc[nH]1)CC2 [ER-819780-01] | 200 | 
24 | CCN1C(=O)N2Cc3cc(OC)cc(OC)c3[C@@H](C)C=C2C12CCN(Cc1nc3ccccc3n1C)CC2 [ER-819926] | 40 | 
25 | CCN1C(=O)N2Cc3cc(OC)cc(OC)c3[C@@H](C)C=C2C12CCN(Cc1cc3ccccc3o1)CC2 [ER-811308-01] | 56 | 
26 | CCN1C(=O)N2Cc3cc(OC)cc(OC)c3[C@@H](C)C=C2C12CCN(Cc1cc(C)nn1C)CC2 [ER-819973-01] | 30 | 
27 | CCN1C(=O)N2Cc3cc(OC)cc(OC)c3[C@@H](C)C=C2C12CCN(Cc1cnc3ccccc3n1)CC2 [ER-811297-01] | 74 | 
28 | CCN1C(=O)N2Cc3cc(OC)cc(OC)c3[C@@H](C)C=C2C12CCN(Cc1cc(C)ccc1F)CC2 [ER-819935] | 130 | 
29 | CCN1C(=O)N2Cc3cc(OC)cc(OC)c3[C@@H](C)C=C2C12CCN(Cc1cc(C)sc1C)CC2 [ER-811365-01] | 84 | 
30 | CCN1C(=O)N2Cc3cc(OC)cc(OC)c3[C@H](C)C=C2C12CCN(Cc1cccn1C)CC2 [ER-819925] | 320 | 
31 | CCN1C(=O)N2Cc3cc(OC)cc(OC)c3[C@@H](C)C=C2C12CCN(Cc1cccn1-c1cnccn1)CC2 [ER-820020-02] | 180 | 
32 | COc1cc2c(c(OC)c1)[C@H](C)C=C1N(C2)C(=O)N(CCO)C12CCN(Cc1cc(C)cc(C)c1)CC2 (single isomer, unassigned) [ER-819787] | 170 | 
33 | CCN1C(=O)N2Cc3cc(OC)cc(OC)c3[C@@H](C)C=C2C12CCN(Cc1cccc3ncccc13)CC2 [ER-819954-01] | 47 | 
34 | CCN1C(=O)N2Cc3cc(OC)cc(OC)c3[C@H](C)C=C2C12CCN(Cc1cc(C)ccc1F)CC2 [ER-819947] | 2600 | 
35 | CCN1C(=O)N2Cc3cc(OC)cc(OC)c3[C@@H](C)C=C2C12CCN(Cc1ccc(/C=C/c3ccccc3)cc1)CC2 [ER-819814-01] | 300 | 
36 | CCN1C(=O)N2Cc3cc(OC)cc(OC)c3[C@@H](C)C=C2C12CCN(Cc1cc(C)cc(C)c1)CC2 [ER-819762] | 40 | 
37 | CCN1C(=O)N2Cc3cc(OC)cc(OC)c3[C@@H](C)C=C2C12CCN(Cc1cnoc1C)CC2 [ER-819810-01] | 12 | 
38 | CCN1C(=O)N2Cc3cc(OC)cc(OC)c3[C@@H](C)C=C2C12CCN(Cc1ccc3cc[nH]c3c1)CC2 [ER-819844-01] | 67 | 
39 | CCN1C(=O)N2Cc3cc(OC)cc(OC)c3[C@@H](C)C=C2C12CCN(Cc1nccc(-c3ccccc3)n1)CC2 [ER-819985-01] | 130 | 
40 | CCN1C(=O)N2Cc3cc(OC)cc(OC)c3[C@@H](C)C=C2C12CCN(Cc1c[nH]c3ccccc13)CC2 [ER-819783-01] | 35 | 
41 | CCN1C(=O)N2Cc3cc(OC)cc(OC)c3[C@@H](C)C=C2C12CCN(Cc1cc(OC)c(F)c(OC)c1)CC2 [ER-824214-00] | 29 | 
42 | CCN1C(=O)N2Cc3cc(OC)cc(OC)c3[C@@H](C)C=C2C12CCN(Cc1cn(C(C)=O)c3ccccc13)CC2 [ER-819808-01] | 140 | 

Row | Structure (SMILES) | IC50 [1] [nM] | further results
43 | CCN1C(=O)N2Cc3cc(OC)cc(OC)c3[C@@H](C)C=C2C12CCN(Cc1c(-c3ccc(F)cc3)nc3ncccn13)CC2 [ER-811346-02] | 200 | 
44 | CCN1C(=O)N2Cc3cc(OC)cc(OC)c3[C@@H](C)C=C2C12CCN(Cc1cc(C)c(F)c(C)c1)CC2 [ER-819931] | 70 | 
45 | CCN1C(=O)N2Cc3cc(OC)cc(OC)c3[C@@H](C)C=C2C12CCN(Cc1c(C)nc3ccccn13)CC2 [ER-811305-01] | 31 | 
46 | CCN1C(=O)N2Cc3cc(OC)cc(OC)c3[C@@H](C)C=C2C12CCN(Cc1ccc(F)c(OC)c1)CC2 [ER-819936] | 120 | 
47 | CCN1C(=O)N2Cc3cc(OC)cc(OC)c3[C@H](C)C=C2C12CCN(Cc1c(F)ccc(C)c1F)CC2 [ER-819946] | 2970 | 
48 | CCN1C(=O)N2Cc3cc(OC)cc(OC)c3[C@@H](C)C=C2C12CCN(Cc1cn(C)c3ccccc13)CC2 [ER-819804-01] | 40 | 
49 | CCN1C(=O)N2Cc3cc(OC)cc(OC)c3[C@@H](C)C=C2C12CCN(Cc1ccc3occc3c1)CC2 [ER-811304-01] | 100 | 
50 | CCN1C(=O)N2Cc3cc(OC)cc(OC)c3[C@@H](C)C=C2C12CCN(Cc1cc3nccnc3s1)CC2 [ER-811301-01] | 260 | 
51 | CCN1C(=O)N2Cc3cc(OC)cc(OC)c3[C@@H](C)C=C2C12CCN(Cc1cccc3c1OCCO3)CC2 [ER-811291-01] | 120 | 
52 | C=C(C)CN1C(=O)N2Cc3cc(OC)cc(OC)c3[C@H](C)C=C2C12CCN(Cc1cc(C)cc(C)c1)CC2 (single isomer, unassigned) [ER-820007] | 1260 | 
53 | CCN1C(=O)N2Cc3cc(OC)cc(OC)c3[C@@H](C)C=C2C12CCN(Cc1cccn1C(C)(C)C)CC2 [ER-811359-01] | 270 | 
54 | CCN1C(=O)N2Cc3cc(OC)cc(OC)c3[C@@H](C)C=C2C12CCN(Cc1cccn1C(C)C)CC2 [ER-811358-01] | 220 | 
55 | COc1cc2c(c(OC)c1)C(C)(C)C=C1N(C2)C(=O)NC12CCN(Cc1ccccc1)CC2 [compound 819667] |  | IC50 (Homo sapiens, HEK293, 24 h, Table 2, engineered HEK cells): 250 nM
56 | COc1cc2c(c(OC)c1)[C@@H](C)C=C1N(C2)C(=O)N(CCO)C12CCN(Cc1cc(C)cc(C)c1)CC2 (single isomer, unassigned) [ER-819786] | 30 | 
57 | CCN1C(=O)N2Cc3cc(OC)cc(OC)c3[C@H](C)C=C2C12CCN(Cc1cc(C)c(F)c(C)c1)CC2 [ER-819943] | > 10000 | 
58 | CCN1C(=O)N2Cc3cc(OC)cc(OC)c3[C@@H](C)C=C2C12CCN(Cc1cccc(-n3cccn3)c1)CC2 [ER-811317-01] | 74 | 
59 | CCN1C(=O)N2Cc3cc(OC)cc(OC)c3[C@@H](C)C=C2C12CCN(Cc1c(C)nc3sccn13)CC2 [ER-811352-02] | 13 | 
60 | CCN1C(=O)N2Cc3cc(OC)cc(OC)c3[C@@H](C)C=C2C12CCN(Cc1ccc3[nH]ccc3c1)CC2 [ER-819966-01] | 48 | 
61 | COc1cc2c(c(OC)c1)[C@H](C)C=C1N(C2)C(=O)N(C[C@@H](O)CO)C12CCN(Cc1cc(C)cc(C)c1)CC2 (single isomer, unassigned) [ER-819789] | 170 | 
62 | CCN1C(=O)N2Cc3cc(OC)cc(OC)c3[C@@H](C)C=C2C12CCN(Cc1cnc3ccccc3c1)CC2 [ER-819837-01] | 56 | 
